According to ChEMBL document CHEMBL1201862, “PubChem BioAssay data set” (2004):
Active and inactive are the calls of the source.

How the values were obtained:
[1] = molecular target: T1, Caspase-3 (Homo sapiens, UniProt P42574); format: functional;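 further: Dose-response selectivity test against caspase-3 for candidate inhibitors of sentrin-specific proteases (SENPs)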
T1 sequence (P42574 whole entry): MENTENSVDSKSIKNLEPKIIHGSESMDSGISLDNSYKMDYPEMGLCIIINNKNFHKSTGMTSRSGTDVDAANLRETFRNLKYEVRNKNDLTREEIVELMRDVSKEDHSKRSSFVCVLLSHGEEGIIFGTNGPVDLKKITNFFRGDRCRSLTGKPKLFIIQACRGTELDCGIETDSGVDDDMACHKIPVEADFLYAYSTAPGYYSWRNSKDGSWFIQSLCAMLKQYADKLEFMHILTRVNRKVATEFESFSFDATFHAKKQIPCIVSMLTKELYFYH

[2] = Luminescence Cell-Based Dose Response HTS to Identify Activators of Luciferase Translation or Activity in H4-C Neuroglioblastoma Cells. [Related pubchem assays: 1829 (Project Summary), 1814 (Primary HTS)]; format: functional
[3] = Luminescence Cell-Based Dose Response HTS to Identify Activators of 5'UTR Stem-Loop Driven Prion Protein mRNA Translation in H4-C Neuroglioblastoma Cells. [Related pubchem assays: 1829 (Project Summary), 1814 (Primary HTS)]; format: functional
[4] = molecular target: T2, Sentrin-specific protease 7 (Homo sapiens, UniProt Q9BQF6); format: functional;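 further: Luminescence-based dose-response confirmation of ultra-high-throughput screening hits, measuring inhibition of SENP7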
T2 sequence (Q9BQF6 whole entry): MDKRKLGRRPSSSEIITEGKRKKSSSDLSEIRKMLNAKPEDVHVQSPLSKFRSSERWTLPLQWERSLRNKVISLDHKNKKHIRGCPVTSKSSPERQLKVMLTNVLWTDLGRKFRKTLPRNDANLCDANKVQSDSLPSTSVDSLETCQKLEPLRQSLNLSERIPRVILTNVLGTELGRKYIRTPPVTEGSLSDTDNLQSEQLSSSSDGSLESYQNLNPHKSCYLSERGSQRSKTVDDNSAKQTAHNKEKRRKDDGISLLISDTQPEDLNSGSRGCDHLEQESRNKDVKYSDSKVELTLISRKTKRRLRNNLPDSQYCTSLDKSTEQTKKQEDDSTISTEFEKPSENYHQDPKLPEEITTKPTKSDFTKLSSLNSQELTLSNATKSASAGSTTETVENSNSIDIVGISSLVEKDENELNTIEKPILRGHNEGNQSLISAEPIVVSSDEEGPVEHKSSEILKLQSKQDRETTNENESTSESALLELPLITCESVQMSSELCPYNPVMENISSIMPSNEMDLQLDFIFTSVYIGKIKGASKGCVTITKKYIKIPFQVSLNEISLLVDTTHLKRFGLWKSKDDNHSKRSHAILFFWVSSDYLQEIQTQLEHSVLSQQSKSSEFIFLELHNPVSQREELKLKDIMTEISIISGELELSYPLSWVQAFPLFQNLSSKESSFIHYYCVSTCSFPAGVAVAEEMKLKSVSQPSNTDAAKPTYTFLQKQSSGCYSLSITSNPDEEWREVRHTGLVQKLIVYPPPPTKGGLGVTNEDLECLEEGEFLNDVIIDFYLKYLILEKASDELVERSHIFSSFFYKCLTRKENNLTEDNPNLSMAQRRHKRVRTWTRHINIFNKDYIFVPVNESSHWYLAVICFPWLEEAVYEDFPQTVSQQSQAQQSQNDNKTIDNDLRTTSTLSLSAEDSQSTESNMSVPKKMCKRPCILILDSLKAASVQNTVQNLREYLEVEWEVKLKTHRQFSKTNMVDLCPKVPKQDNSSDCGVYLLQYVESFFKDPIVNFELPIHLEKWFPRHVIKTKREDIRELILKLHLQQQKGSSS

[5] = Luminescence Cell Based Dose Confirmation HTS to Identify Activators of 5'UTR Stem-Loop Driven Alpha-Synuclein mRNA Translation in H4 Neuroglioblastoma Cells. [Related pubchem assays (depositor defined):AID1813, AID1829]; format: functional; settings: Homo sapiens
[6] = molecular target: T3, Sentrin-specific protease 8 (Homo sapiens, UniProt Q96LD8); format: functional
T3 sequence (Q96LD8 whole entry): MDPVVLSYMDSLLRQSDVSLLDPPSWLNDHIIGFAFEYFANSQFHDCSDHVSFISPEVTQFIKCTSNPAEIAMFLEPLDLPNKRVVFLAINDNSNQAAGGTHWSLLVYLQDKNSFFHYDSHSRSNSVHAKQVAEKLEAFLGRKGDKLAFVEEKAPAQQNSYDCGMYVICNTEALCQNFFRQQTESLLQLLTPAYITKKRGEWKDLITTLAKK

[7] = molecular target: SUMO-activating enzyme (Homo sapiens, UniProt Q9UBT2); test: blockers of UBC9-mediated SUMO conjugation – biochemical, AlphaScreen, SUMOylation inhibitor project, confirmation (AID 2018); format: functional
[8] = molecular target: T4, Leucine aminopeptidase (Plasmodium falciparum 3D7, UniProt Q8IL11); test: P. falciparum M17LAP inhibitors, primary screen, biochemical, fluorogenic H-Leu-NHMec substrate, 1536-well (AID 1619); format: functional
T4 sequence (Q8IL11 whole entry): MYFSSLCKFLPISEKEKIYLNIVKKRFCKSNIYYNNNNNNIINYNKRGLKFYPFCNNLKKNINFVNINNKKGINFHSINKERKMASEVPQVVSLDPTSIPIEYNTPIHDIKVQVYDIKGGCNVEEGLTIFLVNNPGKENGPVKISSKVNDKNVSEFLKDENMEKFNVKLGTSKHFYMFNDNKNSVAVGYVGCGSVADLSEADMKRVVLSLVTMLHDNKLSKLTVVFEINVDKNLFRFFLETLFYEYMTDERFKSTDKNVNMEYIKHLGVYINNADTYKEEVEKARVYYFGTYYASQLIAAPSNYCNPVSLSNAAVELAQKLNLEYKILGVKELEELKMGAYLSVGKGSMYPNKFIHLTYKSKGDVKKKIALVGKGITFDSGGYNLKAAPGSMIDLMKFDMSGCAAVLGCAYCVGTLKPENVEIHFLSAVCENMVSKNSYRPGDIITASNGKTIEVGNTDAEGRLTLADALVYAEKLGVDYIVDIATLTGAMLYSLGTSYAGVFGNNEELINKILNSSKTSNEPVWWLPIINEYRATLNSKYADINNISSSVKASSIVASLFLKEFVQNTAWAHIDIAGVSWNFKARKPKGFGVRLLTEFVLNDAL

[9] = molecular target: Tyrosyl-DNA phosphodiesterase 2 (Homo sapiens, UniProt O95551); test: potency against TDP2 phosphodiesterase activity – biochemical, epi absorbance, IC50, dose response (AID 743297)
[10] = molecular target: T2, Sentrin-specific protease 7; test: inhibition of human SENP7 cleavage activity – biochemical, luminescence, SAR follow-up (AID 504497); format: functional
[11] = molecular target: T3, Sentrin-specific protease 8; format: functional; remark: listed apart in the source

Sequence of Tyrosyl-DNA phosphodiesterase 2 (O95551 whole entry): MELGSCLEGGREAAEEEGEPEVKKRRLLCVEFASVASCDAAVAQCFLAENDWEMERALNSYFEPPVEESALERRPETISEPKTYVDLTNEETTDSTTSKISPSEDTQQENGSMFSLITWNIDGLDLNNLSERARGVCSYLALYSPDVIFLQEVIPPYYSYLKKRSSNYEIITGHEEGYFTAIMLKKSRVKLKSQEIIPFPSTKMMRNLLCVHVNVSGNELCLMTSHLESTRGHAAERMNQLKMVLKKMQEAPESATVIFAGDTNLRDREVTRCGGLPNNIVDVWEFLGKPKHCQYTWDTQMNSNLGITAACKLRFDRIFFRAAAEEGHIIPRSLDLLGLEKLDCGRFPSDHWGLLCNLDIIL
Sequence of SUMO-activating enzyme (Q9UBE0 whole entry): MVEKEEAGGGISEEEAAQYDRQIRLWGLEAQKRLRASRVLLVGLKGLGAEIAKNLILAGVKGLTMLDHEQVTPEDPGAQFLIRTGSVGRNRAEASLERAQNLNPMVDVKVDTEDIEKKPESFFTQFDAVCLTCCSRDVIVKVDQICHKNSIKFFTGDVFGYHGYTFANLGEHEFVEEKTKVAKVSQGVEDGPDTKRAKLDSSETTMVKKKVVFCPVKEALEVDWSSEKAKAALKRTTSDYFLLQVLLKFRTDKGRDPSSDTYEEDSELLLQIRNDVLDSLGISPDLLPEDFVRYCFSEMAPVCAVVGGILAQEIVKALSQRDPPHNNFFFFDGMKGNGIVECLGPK
Sequence of SUMO-activating enzyme (Q9UBT2 whole entry): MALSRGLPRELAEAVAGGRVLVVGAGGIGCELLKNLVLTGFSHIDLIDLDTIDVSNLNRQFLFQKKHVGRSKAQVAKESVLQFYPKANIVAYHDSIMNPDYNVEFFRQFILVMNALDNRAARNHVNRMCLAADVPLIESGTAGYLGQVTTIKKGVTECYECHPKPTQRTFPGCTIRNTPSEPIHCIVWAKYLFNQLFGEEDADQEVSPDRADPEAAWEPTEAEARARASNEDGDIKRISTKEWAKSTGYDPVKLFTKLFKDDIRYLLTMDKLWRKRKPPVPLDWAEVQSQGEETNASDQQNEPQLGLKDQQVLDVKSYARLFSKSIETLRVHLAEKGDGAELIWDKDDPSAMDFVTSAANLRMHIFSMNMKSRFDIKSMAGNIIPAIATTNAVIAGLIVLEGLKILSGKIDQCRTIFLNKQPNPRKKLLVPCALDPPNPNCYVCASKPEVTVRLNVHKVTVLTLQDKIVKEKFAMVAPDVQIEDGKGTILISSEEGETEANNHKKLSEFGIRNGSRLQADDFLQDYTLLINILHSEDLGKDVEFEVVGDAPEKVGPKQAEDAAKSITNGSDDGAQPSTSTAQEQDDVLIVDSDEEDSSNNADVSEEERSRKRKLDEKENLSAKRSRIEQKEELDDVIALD

| SMILES | IC50 [1] | IC50 [4] | IC50 [6] | IC50 [8] | also measured |
| --- | --- | --- | --- | --- | --- |
| c1ccc2c(Nc3nnc(-c4ccncc4)s3)cccc2c1 | 18.5 µM (active) | 5.51 µM (active) | > 100 µM (inactive) | – | EC50 [2]: 1.06 µM (active); EC50 [3]: 40 µM (active); EC50 [5]: 2.02 µM (active) |
| N#Cc1c(O)nc(SCC(=O)N2c3ccccc3Sc3ccccc32)nc1-c1ccccc1 | – | – | – | 10.2 µM (active) | IC50 [7]: 5.15 µM (active) |
| COc1cc(C(=O)c2nccc3cc(OC)c(OC)cc23)c([N+](=O)[O-])cc1OC | 31.9 µM (active) | 2.93 µM (active) | 4.97 µM (active) | – | IC50 [9]: > 128 µM (inactive); IC50 [10]: 24.6 µM (active); IC50 [11]: 14.8 µM (active) |
| N=C1S/C(=C\c2ccc(-c3ccccc3C(=O)O)o2)C(=O)N1c1ccc2c(c1)OCO2 | – | – | – | 29 µM (active) | – |
